Earlier results on 8 molecules are cited in patent publication US8697141B2, “Method and composition for preventing and healing osteonecrosis of the jaw” (Micropure, Inc., priority 2008, dated 2014).

Like-named read-outs stand apart in the source and are kept apart here.

The subject of data set [1] is osteoblasts. To be noted: dose and time dependent.
Another data set deals with fibroblasts. To be noted: dose and time dependent.
For another data set, the system named is endothelial cells. The settings on record: dose and time dependent.
Data set [2] has as its system ONJ. To be noted: 0.12% chlorhexidine; out of 24 patients.
The test system of data set [3] is human gingival fibroblasts. To be noted: chlorhexidine at 0.12%.
Data set [4] concerns periodontal ligament cells. To be noted: chlorhexidine at 0.12%.
Data set [5] deals with osteoblasts. The settings on record: chlorhexidine at 0.12%.
Data set [6] deals with human osteoblast-like cells. To be noted: high concentrations over a prolonged time interval.
The test system of the next data set is S. mutans. To be noted: 200 ppm, within 10 seconds of application.
A further data set relates to Bacteroides gingivalis. The settings on record: 200 ppm, at several time points and different pH.
In a further data set the test system is DUWL biofilms. To be noted: after 5 days of treatment.
A further data set has as its system bacteria. The settings on record: exposures as short as 10 seconds.
For data set [7] the following is noted: in vivo.
The subject of the next data set is C. albicans. To be noted: time and dose dependent.
Data set [8] relates to human gingival fibroblasts. The settings on record: 0.05 mM.
The test system of data set [9] is human gingival fibroblasts. To be noted: low concentrations.
The test system of a further data set is keratinocytes. The settings on record: low concentrations.
Data set [10] has as its system ONJ. To be noted: oral users, 208 patients.
In the next data set the test system is bone vascularity. To be noted: rats.
Data set [11] relates to capillary neoangiogenesis.

On to `N=C(NCCCCCCNC(=N)NC(=N)Nc1ccc(Cl)cc1)NC(=N)Nc1ccc(Cl)cc1.O=C(O)[C@H](O)[C@@H](O)[C@H](O)[C@H](O)CO.O=C(O)[C@H](O)[C@@H](O)[C@H](O)[C@H](O)CO` [chlorhexidine digluconate], for which the apoptosis and necrosis entry is “induced apoptosis and led to necrosis” in the data set with osteoblasts [1]; “induced apoptosis and led to necrosis” in the data set on fibroblasts; “induced apoptosis and led to necrosis” with endothelial cells.

With `[H]/N=C(\N/C(=N/[H])NCCCCCCNC(=N)NC(=N)Nc1ccc(Cl)cc1)Nc1ccc(Cl)cc1` [chlorhexidine], in the data set on ONJ [2], the “patients with ONJ progression” value is 13 patients, the “patients with ONJ resolution” value is 3 patients and the “patients with no change in ONJ status” value is listed as 8 patients. In addition, the “LDH release compared with controls” value in data set [3] is “elevated and significant LDH release”. Also, the “LDH release compared with controls” value in data set [4] is “elevated and significant LDH release”. For the same molecule, in the data set on osteoblasts [5], the “LDH release compared with controls” value was “elevated and significant LDH release”. Further, the cell survival result in data set [6] is “adverse effect on the survival”.

As to stabilized chlorine dioxide, the “in vitro kill rate” value with S. mutans was 99%. Moreover, in the data set with Bacteroides gingivalis, the in vitro kill is on record as 100%. For the same molecule, the “LDH release compared with controls” value (in [3]; in [4]; in the data set with osteoblasts [5]) was “did not increase the release of LDH” in each case. Further, the “heterotrophic plate count (HPC) value” with DUWL biofilms is 0. For the same molecule, in the data set with bacteria, the reduction in bacteria result was “dramatic reduction in bacteria”. Besides, in data set [7], the “VSCs in expired mouth air” value is “remarkable decrease in VSCs”.

Take `[O][Cl+][O-]` [chlorine dioxide]: in the data set with C. albicans, the potassium leakage entry was “marked increase”. Also, in data set [8] (0.1 mM and 0.5 mM ClO2), the induction of apoptosis result was “not to induce apoptosis significantly”.

In the case of `O=P(O)(O)C(O)(Cn1ccnc1)P(=O)(O)O` [zoledronic acid], the “apoptosis of oral mucosal cells” value (in data set [9]; in the data set with keratinocytes) was “gene-regulated induced apoptosis” each time.

As for `NCCCC(O)(P(=O)(O)O)P(=O)(O)O` [alendronate], in the data set on ONJ [10], the ONJ prevalence rate is 4%.

As to `OO` [hydrogen peroxide], the induction of apoptosis entry in data set [8] (1.0 mM) is reported as “induced apoptosis at all concentrations tested”.

Consider `NCCC(O)(P(=O)(O)O)P(=O)(O)O` [pamidronate], for which the bone vascularity entry in the data set with bone vascularity is on record as “reduce bone vascularity”. For the same molecule, the “new formation of capillaries from blood vessels” value in data set [11] is listed as “inhibit the new formation of capillaries from blood vessels”.
